Patent US20090163549A1, “Pharmaceutical Composition Comprising an Amide Derivative” (priority 2005, published 2009)

Experiments:
human TRPV1 receptors = molecular target: T1, human TRPV1 receptors (Homo sapiens, UniProt Q8NER1); assay: Inhibition of capsaicin-stimulated Ca2+ influx (Fluo-3, FDSS-3000) in CHO-K1 cells stably expressing human TRPV1 receptors; assay type: cell-based; conditions: CHO-K1 cells transfected with human TRPV1; capsaicin stimulation; Fluo-3 fluorescence
T1 construct: expressed in transfected cells; host or cells: CHO-K1
Protocol: CHO-K1 cells were transfected with human TRPV1 receptors and a cell culture stably expressing the receptor was seeded on a medium of alpha-MEM containing FBS(10%), HEPES (20 mM), geneticin (1 mg/mL) and antibiotic-antimycotic mixed solution(1%) in 96-well plates, and incubated at 37° C. and 5% CO2 for 2-3 days.
The medium was then substituted with Lording Buffer (20 mM HEPES, 115 mM NaCl, 5.4 mM KCl 0.8 mM MgCl2, 1.8 mM CaCl2, 13.8 mM D-glucose, 2.5 mM probenecid, pH 7.4) containing Fluo-3 AM (5 μM) and incubated at 37° C. and 5% CO2 for 1 hour. The test compounds were diluted to different concentrations and added to the plates after the incubated culture was washed with Wash Buffer (20 mM HEPES, 115 mM NaCl, 5.4 mM KCl 0.8 mM MgCl2, 5.0 mM CaCl2, 13.8 mM D-glucose, 2.5 mM probenecid, 0.1% BSA, pH 7.4) and placed at room temperature for 15 minutes.
The plate was set up in Functional Drug Screening System(FDSS)-3000(Hamamatsu Photonics K.K.) and amounts of Ca^2+ influx before and after capsaicin-stimulation were measured through changes in the fluorescence intensity of Fluo-3.
An inhibitory activity was evaluated by measuring fluorescence intensity in the presence of various concentrations of the test compounds and calculating their % inhibition on the basis that the maximum fluorescence intensity is 100% inhibition when stimulated by Wash Buffer, and 0% inhibition when stimulated by capsaicin
Data analysis and calculation of IC50 values were performed with Excel(Microsoft Corporation) and XLfit(idbs).

T1 sequence (Q8NER1 whole entry): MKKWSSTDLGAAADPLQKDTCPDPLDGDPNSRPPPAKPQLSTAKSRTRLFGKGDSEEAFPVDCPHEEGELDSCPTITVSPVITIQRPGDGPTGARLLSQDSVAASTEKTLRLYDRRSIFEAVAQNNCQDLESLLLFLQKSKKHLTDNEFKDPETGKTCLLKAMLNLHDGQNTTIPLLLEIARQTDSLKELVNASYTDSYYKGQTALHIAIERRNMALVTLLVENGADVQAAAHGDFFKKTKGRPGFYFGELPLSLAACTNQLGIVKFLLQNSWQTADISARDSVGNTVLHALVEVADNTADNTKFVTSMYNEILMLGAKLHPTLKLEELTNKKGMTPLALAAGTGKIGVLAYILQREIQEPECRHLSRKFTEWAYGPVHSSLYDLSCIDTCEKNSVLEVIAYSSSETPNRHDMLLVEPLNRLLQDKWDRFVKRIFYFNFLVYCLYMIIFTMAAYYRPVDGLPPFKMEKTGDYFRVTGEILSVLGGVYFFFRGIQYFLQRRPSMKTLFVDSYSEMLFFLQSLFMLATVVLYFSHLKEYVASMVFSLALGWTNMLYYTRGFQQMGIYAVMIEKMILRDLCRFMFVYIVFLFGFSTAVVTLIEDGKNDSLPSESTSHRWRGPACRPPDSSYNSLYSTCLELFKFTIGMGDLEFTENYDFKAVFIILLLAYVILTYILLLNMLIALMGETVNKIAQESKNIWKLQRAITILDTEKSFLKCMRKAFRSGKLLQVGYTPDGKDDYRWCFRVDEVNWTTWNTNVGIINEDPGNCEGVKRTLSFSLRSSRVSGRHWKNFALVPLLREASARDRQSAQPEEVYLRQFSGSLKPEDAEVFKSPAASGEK

melting point	IC50 (human TRPV1 receptors)	Structure (SMILES)
165 to 166 °C	0.176 µM	CC(C)(C)c1ccc(NC(=O)c2ccc(C3OCCCO3)cc2)cc1 [Ia-1]
148 to 149 °C	0.297 µM	CC(C)(C)c1ccc(NC(=O)c2ccc(C3(C)OCCCO3)cc2)cc1 [Ia-2, N-(4-tert-butylphenyl)-4-(2-methyl-1,3-dioxane-2-yl)benzamide]
119 to 120 °C	0.21 µM	CC(C)(C)c1ccc(NC(=O)c2ccc(C3NCCS3)cc2)cc1 (centres unmarked) [Ib-1]
152 to 153 °C	0.19 µM	CC(C)(C)c1ccc(NC(=O)c2ccc(C3(C)NCCS3)cc2)cc1 (centres unmarked) [Ib-2]
138 to 139 °C	0.25 µM	CC(C)(C)c1ccc(NC(=O)c2ccc(C3(C)NCCO3)cc2)cc1 (centres unmarked) [Ic-1]
180 to 189 °C	0.23 µM	CC(C)(C)c1ccc(NC(=O)c2ccc(C3(C)OCCO3)cc2)cc1 [Ie-2]
176 to 177 °C	0.006 µM	CC(C)(C)c1ccc(NC(=O)c2ccc(C3=NCCS3)cc2)cc1 [If-1, N-(4-tert-butylphenyl)-4-(2-thiazolinyl)benzamide]
> 300 °C	–	CC(C)(C)c1ccc(NC(=O)c2ccc(C3NOC(=O)N3)cc2)cc1 (centres unmarked) [Ih-1, N-(4-tert-butylphenyl)-4-(5-oxo-1,2,4-oxadiazolidine-3-yl)benzamide]
154 to 155 °C	0.163 µM	CON=C(C)c1ccc(C(=O)Nc2ccc(C(C)(C)C)cc2)cc1 [Ij-4, N-(4-tert-butylphenyl)-4-(1-methoxyiminoethyl)benzamide]
